In this test the test system is FLAP (5-lipoxygenase activating protein). In words: In vitro binding test: displacement of [3H]-7-chloro-3-(5-((3-fluoropyridin-2-yl)methoxy)-2-methylphenyl)-3,4-dihydroquinazolin-2(1H)-one from Sf9 microsome fractions. Details: species or system human and mouse. The note with it: Sf9 microsome fractions expressing FLAP; 100% = radioligand binding with 10 μM sodium 3-(3-(tert-butylsulfanyl)-1-(4-chlorobenzyl)-5-isopropyl-1H-indol-2-yl)-2,2-dimethylpropanoate, 0% = DMSO; test compound concentration not given. In short, it runs like this: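 Sf9 microsomes expressing human or mouse FLAP (2 μg/mL) preincubated with compound 10 min at room temperature, then 120 nM tritiated quinazolinone ligand added for 60 min; buffer 100 mM Tris-HCl pH 7.5 with NaCl, EDTA, DTT, glycerol, Tween20. Bound ligand filtered and counted by scintillation; 10 μM indole propanoate defines 100% inhibition, DMSO 0%.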
Background: Displacement assays read how much labelled ligand stays bound in the presence of the test substance.
With `O=C(NC1CC1)c1cc2c(c(C3CC3)n1)CN(c1cc3c(cc1Cl)CCC(c1ncccc1F)O3)C(=O)N2` (stereo not shown) [Example 76, 3-(6-chloro-2-(3-fluoropyridin-2-yl)-3,4-dihydro-2H-chromen-7-yl)-N,5-dicyclopropyl-2-oxo-1,2,3,4-tetrahydropyrido[4,3-d]pyrimidine-7-carboxamide], the “inhibitory rate (%)” value was 105%. Turning to `Cc1ccc(OCc2ncccc2F)cc1N1Cc2c(Cl)cc(C(=O)NC3CC3)cc2NC1=O` [Example 299, 5-chloro-N-cyclopropyl-3-(5-((3-fluoropyridin-2-yl)methoxy)-2-methylphenyl)-2-oxo-1,2,3,4-tetrahydroquinazoline-7-carboxamide], the “inhibitory rate (%)” value was 113%. In the case of `CCCN(C)C(=O)c1ccc2c(c1)NC(=O)N(c1cc(OCc3ncccc3F)ccc1C)C2` [Example 266, 3-(5-((3-fluoropyridin-2-yl)methoxy)-2-methylphenyl)-N-methyl-2-oxo-N-propyl-1,2,3,4-tetrahydroquinazoline-7-carboxamide] it was 105%. In the case of `O=C1OCCN1c1cc2c(c(C3CC3)n1)CN(c1cc3c(cc1Cl)CCC(c1ncccc1F)O3)C(=O)N2` (stereo not shown) [Example 113, 3-(6-chloro-2-(3-fluoropyridin-2-yl)-3,4-dihydro-2H-chromen-7-yl)-5-cyclopropyl-7-(2-oxo-1,3-oxazolidin-3-yl)-3,4-dihydropyrido[4,3-d]pyrimidin-2(1H)-one] it was 114%; in that of `Cc1cc2c(cc1N1Cc3c(cc(C4COC4)nc3C3CC3)NC1=O)OC(c1ncccc1F)CC2` (stereo not shown) [Example 42, 5-cyclopropyl-3-(2-(3-fluoropyridin-2-yl)-6-methyl-3,4-dihydro-2H-chromen-7-yl)-7-(oxetan-3-yl)-3,4-dihydropyrido[4,3-d]pyrimidin-2(1H)-one], 116%. In the case of `Cn1cc(-c2cc3c(c(C4CC4)n2)CN(c2cc4c(cc2Cl)CCC(c2ncccc2F)O4)C(=O)N3)cn1` (stereo not shown) [Example 100, 3-(6-chloro-2-(3-fluoropyridin-2-yl)-3,4-dihydro-2H-chromen-7-yl)-5-cyclopropyl-7-(1-methyl-1H-pyrazol-4-yl)-3,4-dihydropyrido[4,3-d]pyrimidin-2(1H)-one] it was 100%; in that of `Cc1cc2c(cc1N1Cc3c(Cl)cnc(-c4c(C)noc4C)c3NC1=O)OC(c1ncccc1F)CC2` (single isomer, unassigned; (+)) [Example 12, (+)-5-chloro-8-(3,5-dimethyl-1,2-oxazol-4-yl)-3-(2-(3-fluoropyridin-2-yl)-6-methyl-3,4-dihydro-2H-chromen-7-yl)-3,4-dihydropyrido[3,4-d]pyrimidin-2(1H)-one], 99%.

In the case of `Cc1cc2c(cc1N1Cc3c(ccnc3C(C)C)NC1=O)OC(c1ncccc1F)CC2` (stereo not shown) [Example 67, 3-(2-(3-fluoropyridin-2-yl)-6-methyl-3,4-dihydro-2H-chromen-7-yl)-5-isopropyl-3,4-dihydropyrido[4,3-d]pyrimidin-2(1H)-one], the “inhibitory rate (%)” value is given as 104%. As to `CCc1ccc(OCc2ncccc2F)cc1N1Cc2ccccc2NC1=O` [Example 220, 3-(2-ethyl-5-((3-fluoropyridin-2-yl)methoxy)phenyl)-3,4-dihydroquinazolin-2(1H)-one], the “inhibitory rate (%)” value stood at 106%. In the case of `Cc1cc(I)c(OCc2ncccc2F)cc1N1Cc2ccc(Cl)cc2NC1=O` [Example 304, 7-chloro-3-(5-((3-fluoropyridin-2-yl)methoxy)-4-iodo-2-methylphenyl)-3,4-dihydroquinazolin-2(1H)-one] it was 64%.

Regarding `COC(=O)c1cc2c(c(C3CC3)n1)CN(c1cc3c(cc1Cl)CCC(c1ncccc1F)O3)C(=O)N2` (stereo not shown) [Example 70, methyl 3-(6-chloro-2-(3-fluoropyridin-2-yl)-3,4-dihydro-2H-chromen-7-yl)-5-cyclopropyl-2-oxo-1,2,3,4-tetrahydropyrido[4,3-d]pyrimidine-7-carboxylate], the “inhibitory rate (%)” value turned out to be 101%. For `Cc1ccc(OCc2cccs2)cc1N1Cc2ccccc2NC1=O` [Example 175, 3-(2-methyl-5-(2-thienylmethoxyl)phenyl)-3,4-dihydroquinazolin-2(1H)-one] the value was 51%. For `O=C(c1cc2c(c(C3CC3)n1)CN(c1cc3c(cc1Cl)CCC(c1ncccc1F)O3)C(=O)N2)N1CC(F)C1` (stereo not shown) [Example 145, 3-(6-chloro-2-(3-fluoropyridin-2-yl)-3,4-dihydro-2H-chromen-7-yl)-5-cyclopropyl-7-((3-fluoroazetidin-1-yl)carbonyl)-3,4-dihydropyrido[4,3-d]pyrimidin-2(1H)-one] the value was 104%; for `O=C(NCCO)c1cc2c(c(C3CC3)n1)CN(c1cc3c(cc1Cl)CCC(c1ncccc1F)O3)C(=O)N2` (stereo not shown) [Example 101, 3-(6-chloro-2-(3-fluoropyridin-2-yl)-3,4-dihydro-2H-chromen-7-yl)-5-cyclopropyl-N-(2-hydroxyethyl)-2-oxo-1,2,3,4-tetrahydropyrido[4,3-d]pyrimidine-7-carboxamide], 96%; for `Cc1ccc(OCc2ncccc2F)cc1-n1c(=O)[nH]c2cc([N+](=O)[O-])ccc2c1=O` [Example 341, 3-(5-((3-fluoropyridin-2-yl)methoxy)-2-methylphenyl)-7-nitroquinazoline-2,4(1H,3H)-dione], 102%. In the case of `Cc1ccc(OCc2c(F)cccc2F)cc1N1Cc2ccccc2NC1=O` [Example 170, 3-(5-((2,6-difluorobenzyl)oxy)-2-methylphenyl)-3,4-dihydroquinazolin-2(1H)-one] it was 91%.

On to `CCCCOC(=O)CCc1ccc(OCc2ncccc2F)cc1N1Cc2ccccc2NC1=O` [Example 228, butyl 3-(4-((3-fluoropyridin-2-yl)methoxy)-2-(2-oxo-1,4-dihydroquinazolin-3(2H)-yl)phenyl)propanoate], for which the “inhibitory rate (%)” value turned out to be 95%. With `O=C1Nc2cc(-c3ncon3)nc(C3CC3)c2CN1c1cc2c(cc1Cl)CCC(c1ncccc1F)O2` (stereo not shown) [Example 136, 3-(6-chloro-2-(3-fluoropyridin-2-yl)-3,4-dihydro-2H-chromen-7-yl)-5-cyclopropyl-7-(1,2,4-oxadiazol-3-yl)-3,4-dihydropyrido[4,3-d]pyrimidin-2(1H)-one], the “inhibitory rate (%)” value was 111%. In the case of `O=c1[nH]c2cc[nH]c2c(=O)n1-c1cccc(OCc2c(F)cccc2F)c1` [Example 325, 3-(3-((2,6-difluorobenzyl)oxy)phenyl)-1H-pyrrolo[3,2-d]pyrimidine-2,4(3H,5H)-dione] it was 65%; in that of `Cc1ccc(OCc2c(F)cccc2F)cc1N1Cc2ccc(C(=O)NCCO)cc2NC1=O` [Example 197, 3-(5-((2,6-difluorobenzyl)oxy)-2-methylphenyl)-N-(2-hydroxyethyl)-2-oxo-1,2,3,4-tetrahydroquinazoline-7-carboxamide], 101%; in that of `Cc1ccc(S(=O)(=O)Oc2ccc3c(c2)NC(=O)N(c2cc(OCc4ncccc4F)ccc2C)C3)cc1` [Example 252, 3-(5-((3-fluoropyridin-2-yl)methoxy)-2-methylphenyl)-2-oxo-1,2,3,4-tetrahydroquinazolin-7-yl 4-methylbenzenesulfonate], 105%. In the case of `Cc1cc2c(cc1N1Cc3c(cc(-n4cc(C(N)=O)cn4)nc3C3CC3)NC1=O)OC(c1ncccc1F)CC2` (stereo not shown) [Example 135, 1-(5-cyclopropyl-3-(2-(3-fluoropyridin-2-yl)-6-methyl-3,4-dihydro-2H-chromen-7-yl)-2-oxo-1,2,3,4-tetrahydropyrido[4,3-d]pyrimidin-7-yl)-1H-pyrazole-4-carboxamide] it was 104%.

Turning to `O=C1Nc2ccnc(Cl)c2CN1c1cc2c(cc1C(F)(F)F)CCC(c1ncccc1F)O2` (stereo not shown) [Example 35, 5-chloro-3-(2-(3-fluoropyridin-2-yl)-6-(trifluoromethyl)-3,4-dihydro-2H-chromen-7-yl)-3,4-dihydropyrido[4,3-d]pyrimidin-2(1H)-one], the “inhibitory rate (%)” value is given as 93%. In the case of `O=C1Nc2cc(-c3noc(=O)[nH]3)nc(C3CC3)c2CN1c1cc2c(cc1Cl)CCC(c1ncccc1F)O2` (stereo not shown) [Example 103, 3-(6-chloro-2-(3-fluoropyridin-2-yl)-3,4-dihydro-2H-chromen-7-yl)-5-cyclopropyl-7-(5-oxo-4,5-dihydro-1,2,4-oxadiazol-3-yl)-3,4-dihydropyrido[4,3-d]pyrimidin-2(1H)-one] it was 94%; in that of `Cc1nc(C)c2c(c1Cl)CN(c1cc3c(cc1Cl)CCC(c1ncccc1F)O3)C(=O)N2` (stereo not shown) [Example 79, 5-chloro-3-(6-chloro-2-(3-fluoropyridin-2-yl)-3,4-dihydro-2H-chromen-7-yl)-6,8-dimethyl-3,4-dihydropyrido[3,4-d]pyrimidin-2(1H)-one], 98%. In the case of `Cc1ccc(OCc2c(F)cccc2F)cc1N1Cc2nn(C)cc2NC1=O` [Example 236, 6-(5-((2,6-difluorobenzyl)oxy)-2-methylphenyl)-2-methyl-2,4,6,7-tetrahydro-5H-pyrazolo[4,3-d]pyrimidin-5-one] it was 65%. In the case of `Cc1cc2c(cc1N1Cc3c(cc(OC(F)F)nc3C3CC3)NC1=O)OC(c1ncccc1F)CC2` (stereo not shown) [Example 128, 5-cyclopropyl-7-(difluoromethoxy)-3-(2-(3-fluoropyridin-2-yl)-6-methyl-3,4-dihydro-2H-chromen-7-yl)-3,4-dihydropyrido[4,3-d]pyrimidin-2 (1H)-one] it was 111%; in that of `CCc1ccc(OCc2c(F)cccc2F)cc1N1Cc2ccc(C(=O)OC)cc2NC1=O` [Example 177, methyl 3-(5-((2,6-difluorobenzyl)oxy)-2-ethylphenyl)-2-oxo-1,2,3,4-tetrahydroquinazoline-7-carboxylate], 84%.

(Values after patent publication US20150299188A1, “HETEROCYCLIC COMPOUND” (priority 2012, published 2015).)
